{"source": "patent US8192962B2", "about": "“Processes for detecting toxic substances” (Daikin Industries, Ltd., priority 2001, dated 2012)", "system": "Mitochondria-located protein genes", "assay": "DNA chip mRNA expression in yeast, mitochondria-located protein genes (Table 2)", "format": "cell-based, Saccharomyces cerevisiae S288C", "details": "cells incubated two hours with the chemical substance", "summary_of_the_method": "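Cells were grown at 25° C. in YPD, treated at logarithmic phase for 2 h with a chemical at a concentration inhibiting growth but not causing death, and compared with untreated cultures. Labeled cDNA was hybridized to a DNA chip carrying all yeast genes, and the expression ratio was taken from scanner fluorescence.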"}
{"smiles": "CCCCCCCCCCCCOS(=O)(=O)[O-].[Na+]", "note": "[(18), sodium lauryl sulfate]", "values": [{"measurement": "The level of expressed mRNA in the presence of chemical substance/The level of expressed mRNA in the absence of chemical substance", "setting": "yeast gene YAL039C", "value": 1.1}, {"measurement": "The level of expressed mRNA in the presence of chemical substance/The level of expressed mRNA in the absence of chemical substance", "setting": "yeast gene YBL022C", "value": 0.7}, {"measurement": "The level of expressed mRNA in the presence of chemical substance/The level of expressed mRNA in the absence of chemical substance", "setting": "yeast gene YBL030C", "value": 1.1}, {"measurement": "The level of expressed mRNA in the presence of chemical substance/The level of expressed mRNA in the absence of chemical substance", "setting": "yeast gene YBL038W", "value": 1.9}, {"measurement": "The level of expressed mRNA in the presence of chemical substance/The level of expressed mRNA in the absence of chemical substance", "setting": "yeast gene YBL099W", "value": 1.2}, {"measurement": "The level of expressed mRNA in the presence of chemical substance/The level of expressed mRNA in the absence of chemical substance", "setting": "yeast gene YBR003W", "value": 1.3}, {"measurement": "The level of expressed mRNA in the presence of chemical substance/The level of expressed mRNA in the absence of chemical substance", "setting": "yeast gene YBR044C", "value": 1.3}, {"measurement": "The level of expressed mRNA in the presence of chemical substance/The level of expressed mRNA in the absence of chemical substance", "setting": "yeast gene YBR091C", "value": 1.0}, {"measurement": "The level of expressed mRNA in the presence of chemical substance/The level of expressed mRNA in the absence of chemical substance", "setting": "yeast gene YBR122C", "value": 1.5}, {"measurement": "The level of expressed mRNA in the presence of chemical substance/The level of expressed mRNA in the absence of chemical substance", "setting": "yeast gene YBR185C", "value": 1.3}, {"measurement": "The level of expressed mRNA in the presence of chemical substance/The level of expressed mRNA in the absence of chemical substance", "setting": "yeast gene YBR221C", "value": 1.0}, {"measurement": "The level of expressed mRNA in the presence of chemical substance/The level of expressed mRNA in the absence of chemical substance", "setting": "yeast gene YBR251W", "value": 1.4}, {"measurement": "The level of expressed mRNA in the presence of chemical substance/The level of expressed mRNA in the absence of chemical substance", "setting": "yeast gene YBR282W", "value": 1.2}, {"measurement": "The level of expressed mRNA in the presence of chemical substance/The level of expressed mRNA in the absence of chemical substance", "setting": "yeast gene YCL057W", "value": 1.1}, {"measurement": "The level of expressed mRNA in the presence of chemical substance/The level of expressed mRNA in the absence of chemical substance", "setting": "yeast gene YCR046C", "value": 1.0}, {"measurement": "The level of expressed mRNA in the presence of chemical substance/The level of expressed mRNA in the absence of chemical substance", "setting": "yeast gene YCR083W", "value": 1.3}, {"measurement": "The level of expressed mRNA in the presence of chemical substance/The level of expressed mRNA in the absence of chemical substance", "setting": "yeast gene YDL067C", "value": 1.7}, {"measurement": "The level of expressed mRNA in the presence of chemical substance/The level of expressed mRNA in the absence of chemical substance", "setting": "yeast gene YDL181W", "value": 1.4}, {"measurement": "The level of expressed mRNA in the presence of chemical substance/The level of expressed mRNA in the absence of chemical substance", "setting": "yeast gene YDL198C", "value": 1.1}, {"measurement": "The level of expressed mRNA in the presence of chemical substance/The level of expressed mRNA in the absence of chemical substance", "setting": "yeast gene YDR079W", "value": 1.3}, {"measurement": "The level of expressed mRNA in the presence of chemical substance/The level of expressed mRNA in the absence of chemical substance", "setting": "yeast gene YDR178W", "value": 2.3}, {"measurement": "The level of expressed mRNA in the presence of chemical substance/The level of expressed mRNA in the absence of chemical substance", "setting": "yeast gene YDR231C", "value": 1.3}, {"measurement": "The level of expressed mRNA in the presence of chemical substance/The level of expressed mRNA in the absence of chemical substance", "setting": "yeast gene YDR258C", "value": 1.3}, {"measurement": "The level of expressed mRNA in the presence of chemical substance/The level of expressed mRNA in the absence of chemical substance", "setting": "yeast gene YDR298C", "value": 1.6}, {"measurement": "The level of expressed mRNA in the presence of chemical substance/The level of expressed mRNA in the absence of chemical substance", "setting": "yeast gene YDR347W", "value": 1.2}, {"measurement": "The level of expressed mRNA in the presence of chemical substance/The level of expressed mRNA in the absence of chemical substance", "setting": "yeast gene YDR377W", "value": 2.5}, {"measurement": "The level of expressed mRNA in the presence of chemical substance/The level of expressed mRNA in the absence of chemical substance", "setting": "yeast gene YDR529C", "value": 2.3}, {"measurement": "The level of expressed mRNA in the presence of chemical substance/The level of expressed mRNA in the absence of chemical substance", "setting": "yeast gene YEL024W", "value": 1.5}, {"measurement": "The level of expressed mRNA in the presence of chemical substance/The level of expressed mRNA in the absence of chemical substance", "setting": "yeast gene YEL039C", "value": 1.1}, {"measurement": "The level of expressed mRNA in the presence of chemical substance/The level of expressed mRNA in the absence of chemical substance", "setting": "yeast gene YER178W", "value": 0.9}, {"measurement": "The level of expressed mRNA in the presence of chemical substance/The level of expressed mRNA in the absence of chemical substance", "setting": "yeast gene YFL016C", "value": 0.9}, {"measurement": "The level of expressed mRNA in the presence of chemical substance/The level of expressed mRNA in the absence of chemical substance", "setting": "yeast gene YGL018C", "value": 1.0}, {"measurement": "The level of expressed mRNA in the presence of chemical substance/The level of expressed mRNA in the absence of chemical substance", "setting": "yeast gene YGL187C", "value": 2.4}, {"measurement": "The level of expressed mRNA in the presence of chemical substance/The level of expressed mRNA in the absence of chemical substance", "setting": "yeast gene YGL191W", "value": 1.7}, {"measurement": "The level of expressed mRNA in the presence of chemical substance/The level of expressed mRNA in the absence of chemical substance", "setting": "yeast gene YGR008C", "value": 4.2}, {"measurement": "The level of expressed mRNA in the presence of chemical substance/The level of expressed mRNA in the absence of chemical substance", "setting": "yeast gene YGR028W", "value": 2.6}, {"measurement": "The level of expressed mRNA in the presence of chemical substance/The level of expressed mRNA in the absence of chemical substance", "setting": "yeast gene YGR062C", "value": 1.1}, {"measurement": "The level of expressed mRNA in the presence of chemical substance/The level of expressed mRNA in the absence of chemical substance", "setting": "yeast gene YGR076C", "value": 1.5}, {"measurement": "The level of expressed mRNA in the presence of chemical substance/The level of expressed mRNA in the absence of chemical substance", "setting": "yeast gene YGR082W", "value": 0.8}, {"measurement": "The level of expressed mRNA in the presence of chemical substance/The level of expressed mRNA in the absence of chemical substance", "setting": "yeast gene YGR174C", "value": 2.3}, {"measurement": "The level of expressed mRNA in the presence of chemical substance/The level of expressed mRNA in the absence of chemical substance", "setting": "yeast gene YGR244C", "value": 3.1}, {"measurement": "The level of expressed mRNA in the presence of chemical substance/The level of expressed mRNA in the absence of chemical substance", "setting": "yeast gene YHR008C", "value": 1.0}, {"measurement": "The level of expressed mRNA in the presence of chemical substance/The level of expressed mRNA in the absence of chemical substance", "setting": "yeast gene YIL155C", "value": 1.4}, {"measurement": "The level of expressed mRNA in the presence of chemical substance/The level of expressed mRNA in the absence of chemical substance", "setting": "yeast gene YJL096W", "value": 1.2}, {"measurement": "The level of expressed mRNA in the presence of chemical substance/The level of expressed mRNA in the absence of chemical substance", "setting": "yeast gene YJL102W", "value": 1.1}, {"measurement": "The level of expressed mRNA in the presence of chemical substance/The level of expressed mRNA in the absence of chemical substance", "setting": "yeast gene YJL133W", "value": 0.7}, {"measurement": "The level of expressed mRNA in the presence of chemical substance/The level of expressed mRNA in the absence of chemical substance", "setting": "yeast gene YJL166W", "value": 4.0}, {"measurement": "The level of expressed mRNA in the presence of chemical substance/The level of expressed mRNA in the absence of chemical substance", "setting": "yeast gene YJL180C", "value": 1.4}, {"measurement": "The level of expressed mRNA in the presence of chemical substance/The level of expressed mRNA in the absence of chemical substance", "setting": "yeast gene YJR045C", "value": 0.9}, {"measurement": "The level of expressed mRNA in the presence of chemical substance/The level of expressed mRNA in the absence of chemical substance", "setting": "yeast gene YJR077C", "value": 0.8}]}
